Results: patent US7919458B2, “Method of inhibiting prostate cancer cell proliferation” (Scott, Kieran, Francis, priority 2002, dated 2011)
Non-standard residues stand in square brackets, D forms with d. 2Nal = N[C@@H](Cc1ccc2ccccc2c1)C(=O)O

Legend:
[1] = test system: LNCaP; assay: MTS cell growth assay, unstimulated LNCaP cells; type: cell-based, human; conditions: 72 hours; for Proliferation of unstimulated LNCaP cells: 1-100 nM, endogenous sPLA2-IIA; for Smallest effective dose, LNCaP proliferation: doses 1-100 nM
Procedure: (§1) FIG. 4. Effect of sPLA2-IIA inhibition on unstimulated prostate cancer cells. (A) The endogenous expression of sPLA2-IIA mRNA was evaluated by RT-PCR in three unstimulated prostate cancer cell lines (LNCaP, DU145 and PC-3) grown in RPMI containing 5% FCS. HPRT was used to as a positive control for RNA integrity and loading. (B) Cells were grown in RPMI with 5% FCS were then treated for 72 hours in the presence and absence of the sPLA2-IIA inhibitor c(2Nap)LS(2Nap)R and cell number determined by MTS assay as described in Materials and Methods. Data are mean±SD of quadruplicate determinations expressed as percentages relative to untreated control cells (100%). LNCaP, closed bars, OD495 untreated cells 0.50±0.03; DU145, open bars, OD495 untreated cells 0.73±0.05; PC-3, hatched bars, OD495 untreated cells, 0.66±0.01. *p<0.05 vs untreated control by one-way ANOVA.
(§2) Cell Lines and Culture. The LNCaP, DU145 and PC3 cell lines were purchased from American Type Culture Collection (Rockville, Md.). All cell cultures were maintained in RPMI 1640 supplemented with 5% FBS for LNCaP and 10% FBS for DU145 and PC3 at 37° C. in a humidified environment of 5% CO2. For experiments with addition of androgens, cells were cultured in RPMI 1640 without phenol red and supplemented with same concentration of charcoal stripped FBS. For experiments described in this article, we used cells between passage 30 and 45 for LNCaP, 65 and 80 for DU145 and 25 and 40 for PC3.
(§3) Cell growth assay. Cells were plated at 1×10^4 per well in 96-well plates with 0.1 ml of FBS-supplemented RPMI. After reaching 70-80% confluence (about 48 hours), the medium was changed to that containing various treatments for 3 days. After treatment, the number of viable cells was determined using the MTS assay (CellTiter 96® AQueous Assay; Promega, Madison, Wis.). In brief, 20 ul of MTS solution was added to each well and cells were incubated for 1 h. The absorbance at 490 nm was measured with an ELISA microplate reader. Each experiment was performed in quadruplicate and repeated at least three times.
(§4) To test the effect of blocking endogenous sPLA2-IIA on cell growth, we firstly determined the basal mRNA levels of sPLA2-IIA in 3 human prostate cancer cell lines. The androgen-independent cell lines PC-3 and DU145 cells were included in the study to also exclude a possible general toxicity of the inhibitors. mRNA encoding sPLA2-IIA was undetectable in DU-145 compared with LNCaP and PC-3 cells (FIG. 4A). We then tested the effect of individual inhibitors cFLSYR (SEQ ID NO: 6) and c(2Nap)LS(2Nap) R on cell growth over a range of doses (1-100 nM). […] The low but effective dosage and its specificity for cell lines containing endogenous sPLA2-IIA only, indicate that non-specific cell toxicity is not likely to explain the inhibitory effect.

[2] = test system: DU145; assay: MTS cell growth assay, unstimulated DU145 cells; type: cell-based, human; conditions: 1-100 nM, 72 hours, sPLA2-IIA mRNA undetectable
Procedure: as §1
Cell Lines and Culture. The LNCaP, DU145 and PC3 cell lines were purchased from American Type Culture Collection (Rockville, Md.). […]
(§5) Cell growth assay. […] After treatment, the number of viable cells was determined using the MTS assay (CellTiter 96® AQueous Assay; Promega, Madison, Wis.). […] The absorbance at 490 nm was measured with an ELISA microplate reader. […]
To test the effect of blocking endogenous sPLA2-IIA on cell growth, we firstly determined the basal mRNA levels of sPLA2-IIA in 3 human prostate cancer cell lines. […]

[3] = test system: PC-3; assay: MTS cell growth assay, unstimulated PC-3 cells; type: cell-based, human; conditions: 72 hours; for Proliferation of unstimulated PC-3 cells: 1-100 nM, endogenous sPLA2-IIA; for Smallest effective dose, PC-3 proliferation: doses 1-100 nM
Procedure: as §1, §2, §3, §4

[4] = target: T1, human sPLA2-IIA (Homo sapiens, UniProt P14555); conditions: previously published work (Tseng et al. 1996; Church et al. 2001); cited from earlier work
T1 sequence (P14555 21-144): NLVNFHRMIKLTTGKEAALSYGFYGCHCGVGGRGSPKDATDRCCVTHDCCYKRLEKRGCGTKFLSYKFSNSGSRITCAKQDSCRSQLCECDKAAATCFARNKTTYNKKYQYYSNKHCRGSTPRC

[5] = test system: LNCaP cells; assay: Flow cytometric cell cycle analysis (propidium iodide) of LNCaP cells; type: cell-based, human
Procedure: (§6) FIG. 2. Effect of exogenous addition of sPLA2-IIA on prostate cell growth. LNCaP cells were grown in RPMI with 5% FCS and treated for 72 hours in media containing (A) increasing concentrations of sPLA2-IIA alone (closed bars) or increasing concentrations of the activity-dead sPLA2-IIA mutant H48Q. (B) a fixed concentration of sPLA2-IIA and increasing concentrations of the sPLA2-IIA inhibitor cFLSYR (SEQ ID NO: 6). Cell number relative to untreated control cells was determined by the MTS assay as described in Materials and Methods. Data are Mean±SD of quadruplicate determinations normalised to 100% for untreated cells. OD495 of unstimulated cells was 0.29±0.06 for sPLA2-IIA and 0.24±0.03 for the sPLA2-IIA mutant experiments in panel A and 0.24±0.03 for panel B. *p<0.05 vs untreated control by one-way ANOVA. Data are representative of three separate experiments. (C). LNCaP cells were grown as above and stimulated for 72 hours with sPLA2-IIA (1 nM) in the absence (dotted lines) and presence (solid lines) of the sPLA2-IIA inhibitor cFLSYR (SEQ ID NO: 6) (100 nM). Cells (1×10^6) were assayed by flow cytometry following treatment with propidium iodide as described in Materials and Methods. Statistical analysis was performed on 10,000 events per sample. Data are representative of three separate experiments.
Flow Cytometric Analysis. Cells were seeded in 25 ml flasks in conditions as described above. Following treatment, trypsinization and cell counting, LNCaP cells (1×10^6) were suspended in 1 mL PBS and incubated with 0.2 mL 0.4% Triton® X-100 for 5 min at R/T in the presence of 50 μL of propidium iodide solution (50 μg/mL) and 20 μL of ribonuclease (10 mg/mL). DNA content per cell was measured by flow cytometry using an FACScalibur® flow cytometer and CellQuest® software (Becton Dickinson, Franklin Lakes, N.J.). Statistical analysis was performed on 10,000 events per sample.
We next used flow cytometric analysis to determine how sPLA2-IIA affects the distribution of LNCaP cells in different phases of the cell cycle. […]

[6] = test system: LNCaP cells; assay: MTS cell growth assay, inhibition of sPLA2-IIA-stimulated LNCaP proliferation; type: cell-based, human; conditions: fixed sPLA2-IIA (1 nM), 72 hours, increasing inhibitor concentrations
Procedure: as §6, with “LNCaP cells were grown as above and stimulated for 72 hours with sPLA2-IIA (1 nM) in the absence (dotted lines) and presence (solid lines) of the sPLA2-IIA inhibitor cFLSYR (SEQ ID NO: 6) (100 nM). Cells (1×10^6) were assayed by flow cytometry following treatment with propidium iodide as described in Materials and Methods. Statistical analysis was performed on 10,000 events per sample. Data are representative of three separate experiments.” left out
FIG. 3. […] Cell number was determined by the MTS assay as described in Materials and Methods. Data are mean±SD of quadruplicate determinations expressed as percentages relative to untreated control cells (100%) (open bar). […]
as §5

[7] = test system: LNCaP cells; assay: MTS cell growth assay, exogenous sPLA2-IIA added to LNCaP cells; type: cell-based, human; conditions: 72 hours
Procedure: as §6, with “LNCaP cells were grown as above and stimulated for 72 hours with sPLA2-IIA (1 nM) in the absence (dotted lines) and presence (solid lines) of the sPLA2-IIA inhibitor cFLSYR (SEQ ID NO: 6) (100 nM). Cells (1×10^6) were assayed by flow cytometry following treatment with propidium iodide as described in Materials and Methods. Statistical analysis was performed on 10,000 events per sample. Data are representative of three separate experiments.” left out
as §5
To examine the biological relevance of sPLA2-IIA to prostate cancer cell growth, we treated LNCaP cells with increasing doses of human recombinant sPLA2-IIA and monitored cell growth. […]

## c(2NapA)LS(2NapA)R: cyclic peptide where F and Y are substituted with 2-naphthylalanine; sPLA2-IIA inhibitor (cyclo([2Nal]LS[2Nal]R); SMILES CC(C)C[C@@H]1NC(=O)[C@H](Cc2ccc3ccccc3c2)NC(=O)[C@H](CCCNC(=N)N)NC(=O)[C@H](Cc2ccc3ccccc3c2)NC(=O)[C@H](CO)NC1=O)
[1]
  Proliferation of unstimulated LNCaP cells: significantly decreased
  Smallest effective dose, LNCaP proliferation: 1 nM
[2]
  Effect on unstimulated DU145 cell growth: neither of the inhibitors had an effect
[3]
  Proliferation of unstimulated PC-3 cells: significantly decreased
  Smallest effective dose, PC-3 proliferation: 1 nM
[4]
  Inhibition of human sPLA2-IIA in in vitro activity assays: significant improvement in potency over linear peptides

## cFLSYR: cyclic peptide FLSYR, sPLA2-IIA inhibitor derived from residues 70-74 of human sPLA2-IIA (cyclic)
[1]
  Proliferation of unstimulated LNCaP cells: significantly decreased
  Smallest effective dose, LNCaP proliferation: 1 nM
[2]
  Effect on unstimulated DU145 cell growth: neither of the inhibitors had an effect
[5]; sPLA2-IIA 1 nM plus cFLSYR 100 nM, 72 hours
  Proportion of cells in G1 and G2 phase with sPLA2-IIA plus inhibitor: returned to basal levels
[6]
  Effect on sPLA2-IIA-stimulated LNCaP cell number/growth: completely blocked
[3]
  Proliferation of unstimulated PC-3 cells: significantly decreased
  Smallest effective dose, PC-3 proliferation: 1 nM
[4]
  Inhibition of human sPLA2-IIA in in vitro activity assays: significant improvement in potency over linear peptides

B1: sPLA2-IIA: human recombinant sPLA2-IIA purified from Chinese hamster ovary cell conditioned media (protein, listed as Homo sapiens)
chain: MKTLLLLAVIMIFGLLQAHGNLVNFHRMIKLTTGKEAALSYGFYGCHCGVGGRGSPKDATDRCCVTHDCCYKRLEKRGCGTKFLSYKFSNSGSRITCAKQDSCRSQLCECDKAAATCFARNKTTYNKKYQYYSNKHCRGSTPRC
[7]; MTS assay
  Lowest dose stimulating LNCaP cell growth: 1 nM
[7]; RPMI with 5% FCS, relative to untreated cells
  Effect of exogenously added protein on LNCaP cell growth (MTS): dose-dependently stimulated LNCaP cell growth
[5]; sPLA2-IIA containing medium (1 nM), 72 hours, untreated 74%
  Proportion of LNCaP cells in G1 phase: 62%
[5]; sPLA2-IIA containing medium, in comparison to untreated cells
  Proportion of LNCaP cells in G2/M phase: increase
